# Test system: RSV-A2-GFP virus
# Test: microbe, parasite or virus in culture
# Assay type: cell-based, Human Respiratory Syncytial Virus
# Settings: Calu-1 cells infected with RSV-A2-GFP, 96 hrs, GFP-expressing cells counted; read-out: RSV EC50
# Method: To set up the assay, ARF vials were thawed in a 37° C. water bath and a control compound was resuspended in assay media DMEM (Dulbecco's Modified Eagle Medium) containing 2% FBS, 100 U/ml Penicillin-Streptomycin.
# GFP sequence was derived from pJTI™ R4 Dest CMV N-EmGFP pA Vector (Invitrogen) and was cloned into the intergenic sequence between wild-type RSV-A2 P and M genes using standard recombineering techniques. Recombinant RSV-A2-GFP was propagated in Hep2 cells (human cells contain HeLa marker chromosomes and were derived via HeLa contamination, ATCC CCL-23) with a Multiplicity of Infection (MOI) of 0.1. Virus was harvested 3 days after infection by collecting all culture material and then freeze-thawing the mixture for 5 min. Working virus stocks were generated by thawing frozen viral cultures in 37° C. water bath, which were centrifuged at 218 g for 15 min at 4° C. 1/10 of 10×SPG (Biological Industries 06-3061-01-5A) were added and then mixed. The supernatant was aliquoted, frozen in liquid nitrogen, and then transferred to a −80° C. freezer for storage. Virus titer was determined by automated plaque assay in HEp-2 cells following methods described previously (Wen Z. et al.; 2019).
# Calu-1 cells were purchased from ATCC (Cat #HTB-54) and were expanded in growth media (DMEM containing 10% FBS, 100 U/ml Penicillin-Streptomycin). To make ARF, cell culture media was removed and discarded and the cell layer was briefly rinsed with PBS to remove serum. 2.5 mL of TrypLE Express solution were added and cells incubated until dislodged, to which growth media was added and the cells were resuspended by gentle pipetting. Cells were counted for concentration and viability as determined by ViCell. Cells were centrifuged at RT, 300 g for 5 minutes to pellet cells. The supernatant was gently aspirated and the pellet was flicked to loosen cells. Cells were resuspended in an appropriate volume of freezing medium (DMEM containing 10% DMSO, 10% FBS, 100 U/ml Penicillin-Streptomycin) to achieve a concentration of 5×10^6 cells/mL. 1 mL aliquots of the cell suspension were transferred to freezing vials. The vials were put into an upright container in a −80° C. freezer overnight before transferring vials to liquid nitrogen for storage.
# Assay ready freezedown (ARF, generation described separately) Calu-1 cells (ATCC HTB-54) were used. Compound plates were prepared by dispensing compounds dissolved in DMSO into the wells of a 384 well Corning® 3985 plate with an ECHO acoustic dispenser and compounds were tested in 10-point serial 3-fold dilution. […] To set up the assay, ARF vial(s) were thawed in a 37° C. water bath and were then resuspended into assay media (DMEM containing 2% FBS, 100 U/ml Penicillin-Streptomycin). Cells were counted using default parameters on ViCell and diluted to 20,000 cells/mL in assay media. RSV-A2-GFP virus was added to cells at 24,000 pfu/ml (MOI=1.2) and mixed by gentle inversion. 10 μL/well of 100% DMSO was dispensed as CellTiter-Glo (CTG) assay Max_E controls wells. The cells were dispensed at 50 μL/well using Bravo with 50 μL filtered tips into compound plates. Plates were covered with MicroClime lids, loaded with 7.5 mL of assay media to minimize evaporation, and were incubated at 37° C. and 5% CO2 for 96 hrs. Following incubation, distinct, GFP-expressing cells were counted using an Acumen imaging system with appropriate settings. A same-well CTG assay was performed by adding 10 μL/well reconstituted CellTiter-Glo reagent (Promega G7573) and plates were read on PerkinElmer Envision according to manufacturer's instructions. Raw data were loaded and analyzed in ActivityBase. Antiviral IC50 and cytotoxicity CC50 values were determined using a 4 parameter logistic fit based on the Levenberg-Marquardt algorithm. Model: 205-4 Parameter Logistic.
row,SMILES,EC50 [nM]
1,"Cc1nc(-c2ncccn2)sc1C(=O)N1C[C@@H]2[C@H](C1)[C@H]2Oc1cc(C(C)(C)N)cc(-c2ccc(F)c(F)c2)n1 [Example 15, ((1R,5S,6s)-6-((4-(2-aminopropan-2-yl)-6-(3,4-difluorophenyl)pyridin-2-yl)oxy)-3-azabicyclo[3.1.0]hexan-3-yl)(4-methyl-2-(pyrimidin-2-yl)thiazol-5-yl)methanone]",< 10
2,"Cc1ccc(-c2cc(C(C)(C)N)cc(O[C@H]3[C@@H]4CN(C(=O)c5sc(-c6ncccn6)nc5C)C[C@@H]43)n2)cc1 [Example 21, ((1R,5S,6s)-6-((4-(2-aminopropan-2-yl)-6-(p-tolyl)pyridin-2-yl)oxy)-3-azabicyclo[3.1.0]hexan-3-yl)(4-methyl-2-(pyrimidin-2-yl)thiazol-5-yl)methanone]",< 10
3,"Cc1nn(-c2ccccc2)cc1C(=O)N1C[C@@H]2[C@H](C1)[C@H]2Oc1cc(C(C)(C)N)cc(-c2ccc(F)cc2)n1 [Example 74, ((1R,5S,6s)-6-((4-(2-aminopropan-2-yl)-6-(4-fluorophenyl)pyridin-2-yl)oxy)-3-azabicyclo[3.1.0]hexan-3-yl)(3-methyl-1-phenyl-1H-pyrazol-4-yl)methanone]",< 10
